The results in this text go back to publication PMC8279484 (Journal of Medicinal Chemistry, 2021).

Molecules are shown by their SMILES. Read-outs that look alike come from different tables or passages of the source.

The subject of one data set is THP-1 LUCIA monocytes. The data set can be described thus: In vitro safety study: Safety index (Si), activity versus toxicity. It is filed as cell-based, human. Particulars: for IC50: Homo sapiens, THP-1, highest IC50 among the LPS-challenged assays (NF-κB activity, cytokine, LDH release), read-out: Extrinsic Activity hIC50; for Safety Index TC50/IC50: ratio of intrinsic TC50 to extrinsic hIC50. Here is the method: A postanalysis “safety study” was conducted on all QNX-sLXms. For each tested compound, we calculated an in vitro “Safety index” (Si) by relating its “anti-inflammatory half-maximal activity” (the highest dose among the IC50 of the extrinsic LPS-challenged phenotype: NF-κB activity, proinflammatory cytokine, and LDH release) to its intrinsic “toxicity” (expressed as the relative half-maximal LDH-associated cytotoxicity). The generated Si is potentially predictive of a translational “therapeutic” range: the higher the Si, the safer the molecule is. As summarized in Table S4, Si values from all tested compounds fall in a broad range (7–50).
On the technique in general: Release of lactate dehydrogenase indicates damage to the cell membrane.

The next data set deals with NF-κB. The data set can be described thus: LPS-induced NF-κB-driven luciferase gene reporter assay in THP-1 Lucia monocytes. It is filed as cell-based, human. Conditions: for Rel. Slope: HS relative to LXA4 (1); for IC50: Homo sapiens, THP-1; for Potency Rel. Pot.: IC50 relative to LXA4 (1); for Efficacy Rel. Eff.: Imax relative to LXA4 (1); for Imax (%): maximal % inhibition of LPS (50 ng/mL)-stimulated NF-κB luciferase activity, 30 min pretreatment; for Imax (%) / reduction of LPS-induced NF-κB-driven luciferase activity: 1 pM–1 μM; for (Single component) Rel. Score: Rel. Pot. / (Single component) Rel. Score: Rel. Sl.: score relative to LXA4 (1); for reduction of LPS-induced NF-κB-driven luciferase activity: approximate extent; for Slope HS (Hill–Slope): slope of concentration–response curve; for (Aggregate) Rel. PD Score: sum of efficacy, potency, slope scores relative to LXA4 (1). On the procedure: Mycoplasma-free THP-1-Lucia NF-κB cells were grown in an RPMI 1640 (Gibco) medium containing 2 mM L-glutamine, 1.50 g/L sodium bicarbonate, 4.50 g/L glucose, 10 mM N-(2-hydroxyethyl)piperazine-N′-ethanesulfonic acid (HEPES), and 1 mM sodium pyruvate. Then, 10% heat-inactivated fetal bovine serum (FBS) (30 min at 56 °C), 100 μg/mL Normocin, and Pen-Strep (50 U/mL to 50 μg/mL) were also added to the growth media. As THP-1-Lucia cells were resistant to Zeocin, the latter was used as a selective antibiotic (a high dose, i.e., 100 μg/mL, was alternated every 2 weeks with a low dose, i.e., 10 μg/mL).
LXA41 and all of the tested sLXms were dissolved in ethanol and further diluted in a culture medium (final ethanol concentration 0.1%; equivalent concentrations were used as the vehicle control). Prior to in vitro experiments, THP-1-Lucia NF-κB cells were harvested and plated at 1 × 10^5 cells/well on 96-well plates and left to settle in the incubator at 37 °C, 95% humidity, and 5% CO2, in 0.1% FBS-containing media, pretreated for 30 min with increasing doses of LXA41, sLXms (from 10^–12 to 10^–6 M), or appropriate controls, followed by stimulation with 50 ng/mL LPS for 24 h.
NFκB activity was monitored in the human THP-1 monocytic leukemia cell line containing a stably integrated NF-κB-inducible Lucia reporter construct (as previously reported).[21] When stimulated with LPS, the transcription factor NF-κB is activated, upregulating the synthesis of proinflammatory mediators, thus bringing about an inflammatory response. In these cells, NF-κB activation is linked to a […] luciferase gene and can be measured using luminescence.
Heat-killed listeria monocytogenes (HKLM) (10^8/mL) was used as a positive control.[28] The levels of NF-κB-induced Luciferase were then measured in a culture supernatant using QUANTI-Luc as the detection reagent, and measurements were taken on a bioluminescence reader.
After 24 h, the levels of NF-κB-induced Lucia were assayed in a cell culture supernatant using QUANTI-Luc, as a detection reagent, on a bioluminescence reader (Synergy HT, BioTek Instruments, Inc. Vermont). Aliquots of the supernatant were retained for subsequent cytokine and LDH assays. Cellular proteins were extracted with a radioimmunoprecipitation assay (RIPA) buffer (Thermo Fisher, Ireland), supplemented with protease inhibitors (Sigma-Aldrich, Ireland). Lysates were clarified by centrifugation (3200g, 10’, 4 °C) to remove cell debris, and the cell protein level was quantified by performing a bicinchoninic acid (BCA) assay (as per the manufacturer’s instructions) reading the protein absorbance at 570 nm, using a spectrophotometer (SPECTRAMAX M2, Molecular Devices (U.K.) Limited). A “relative luminescence unit” (RLU) was obtained using the average value of the lum/abs ratio of two replicates.
The “coding” of the heat-map indicates the arbitrary criteria to assign points to each single PD component (efficacy = Imax or Emax; potency = IC50 or EC50; slope = HS) to generate a final (aggregate) relative PD score. […] If a single PD component was equal to the reference level (x = 1), then the single-component relative score was arbitrarily set to 0 (gray). If a single PD component was smaller than the reference level (x < 1), then the single-component relative score was arbitrarily set to −1 (light red) or −2 (dark red). If the curve of a single PD component was best fitting to a flat line (x = 0), then the single-component relative score was arbitrarily set to −4 (purple) (Table S1).
(In general: Reporter assays use an easily measured gene product as a stand-in for the process of interest.)

The mark [1] stands for this setting: LPS 50 ng/mL, 24 h, read-out: Potency IC50.

Take `CCCCC[C@@H](O)c1nc2ccccc2nc1/C=C/[C@@H](O)[C@@H](O)CCCC(=O)OC` [(R)-6, Methyl (5S,6R,E)-5,6-Dihydroxy-8-(3-((R)-1-hydroxyhexyl)quinoxalin-2-yl)oct-7-enoate]: in the data set on THP-1 LUCIA monocytes, the IC50 was determined as 0.025 nM and the “Safety Index TC50/IC50” value amounted to 20. In the data set with NF-κB, the “Rel. Slope” value was found to be 57, the “Potency Rel. Pot.” value is recorded as 2.4, the “Efficacy Rel. Eff.” value is listed as 1.58 and the “(Single component) Rel. Score: Rel. Pot.” value was 1 (1 < x < 5). The “(Single component) Rel. Score: Rel. Sl.” value in the data set on NF-κB is 2 (x ≥ 10). Further, the IC50 in the data set with NF-κB (LPS 50 ng/mL, 24 h, read-out: IC50) is 0.025 nM. Moreover, the “Imax (%)” value in the data set with NF-κB (24 h) came out at 38 ± 9%.
On to `CCCCC[C@@H](O)c1nc2ccccc2nc1/C=C/[C@H]1OC(C)(C)O[C@H]1CCCC(=O)OC` [(R)-17, Methyl 4-((4S,5R)-5-((E)-2-(3-((R)-1-Hydroxyhexyl)quinoxalin-2-yl)vinyl)-2,2-dimethyl-1,3-dioxolan-4-yl)butanoate], for which, in the data set with THP-1 LUCIA monocytes, the IC50 is 0.01 nM and the “Safety Index TC50/IC50” value is given as 10. In the data set with NF-κB, the “Rel. Slope” value is listed as 0, the “Potency Rel. Pot.” value is given as 60, the “Efficacy Rel. Eff.” value came to 0.75 and the “reduction of LPS-induced NF-κB-driven luciferase activity” value is “least effective”. Moreover, in the data set with NF-κB, the “(Single component) Rel. Score: Rel. Pot.” value is listed as 2 (x ≥ 5), the “(Single component) Rel. Score: Rel. Sl.” value is -4 (x = 0), the “Slope HS (Hill–Slope)” value amounted to 0 and the “(Aggregate) Rel. PD Score” value is on record as -3. Further, in the data set with NF-κB (setting [1]), the IC50 worked out at 0.001 nM. Further, in the data set with NF-κB (24 h), the “Imax (%)” value was 18 ± 7%.
In the case of `CCCCCCC[C@H](O)c1nc2ccccc2nc1/C=C/[C@@H](O)[C@@H](O)CCCC(=O)OC` [(S)-8, Methyl (5S,6R,E)-5,6-Dihydroxy-8-(3-((S)-1-hydroxyoctyl)quinoxalin-2-yl)oct-7-enoate], in the data set with THP-1 LUCIA monocytes, the IC50 is 0.01 nM and the “Safety Index TC50/IC50” value amounted to 10. For the same molecule, in the data set with NF-κB, the “Rel. Slope” value turned out to be 0, the “Potency Rel. Pot.” value was found to be 6, the “Efficacy Rel. Eff.” value is 0.96 and the “reduction of LPS-induced NF-κB-driven luciferase activity” value was 10–20%. For the same molecule, in the data set on NF-κB, the “(Single component) Rel. Score: Rel. Pot.” value is 2 (x ≥ 5), the “(Single component) Rel. Score: Rel. Sl.” value was -4 (x = 0), the “Slope HS (Hill–Slope)” value was 0 and the “(Aggregate) Rel. PD Score” value is on record as -2. Further, the IC50 in the data set on NF-κB (setting [1]) was found to be 0.01 nM. Further, the “IC50 (range in words)” value at NF-κB (LPS 50 ng/mL, 24 h) is ““pM” range”. The “Imax (%)” value in the data set with NF-κB (24 h) turned out to be 23 ± 8%.
Consider `CCCCC[C@H](O)/C=C/C=C\C=C\C=C\[C@@H](O)[C@@H](O)CCCC(=O)O` [Compound 1, LXA4], for which, in the data set with NF-κB, the “Rel. Slope” value stood at 1, the “Potency Rel. Pot.” value was 1 and the “Efficacy Rel. Eff.” value is 1. Moreover, in the data set with NF-κB (24 h), the “Imax (%)” value is on record as 24 ± 1%.
In the case of `CCCCC[C@@H](O)c1c(/C=C/[C@@H](O)[C@@H](O)CCCC(=O)OC)nc(C)n1C` [Compound 5, imidazolo-LXA4], in the data set with NF-κB, the “Rel. Slope” value was -9, the “Potency Rel. Pot.” value stood at 300, the “Efficacy Rel. Eff.” value came to 1.83 and the “(Single component) Rel. Score: Rel. Pot.” value is 2 (x ≥ 5). Further, in the data set on NF-κB, the “(Single component) Rel. Score: Rel. Sl.” value is 1 (1 < x < 10), the “Slope HS (Hill–Slope)” value worked out at 90 and the “(Aggregate) Rel. PD Score” value is given as 5. The “Imax (%)” value in the data set with NF-κB (24 h) was 44 ± 9%.
